Where two headings read alike, the source gives them in different places.
Legend:
Format in all cases: cell-based
P. falciparum = assay: Involvement of enzymatic activity in GX sPLA2-induced inhibition of parasite growth (schizont-enriched culture, 24 h); settings: 37.5 μM LY329722 plus 50 nM GX sPLA2, 24 h
Experimental: Parasitaemia (%) at t 0 h and t 24 h were determined from Diff Quick-stained smears. Y axis states increase of parasitaemia (A parasitaemia (%)), expressed as parasitaemia at t 24 h-parasitaemia at t 0 h;
Parasitaemia (%) before incubation, and after 24 h of incubation, was determined from Diff Quick-stained smears. Parasite growth was expressed as the percent delta of parasitaemia, using the following formula:
ΔP=[(Px−P0)/(P100−P0)]×100; where ΔP is in percent, P0 is the parasitaemia (%) in the initial culture, P100 is the parasitaemia (%) after 24 h in normal culture conditions, and Px is the parasitaemia (%) after 24 h in experimental conditions.

[1] = system: P. falciparum FcB1 strain; assay: In vitro chemosensitizing activity of PAF on hGX sPLA2 (response modification index); settings: fixed sub-inhibitory PAF 25 μM, 37.5 μM and 50 μM
Experimental: The effects of serial concentrations of PAF (platelet-activating factor) on the susceptibility of the P. falciparum FcB1 strain to GX sPLA2 were assessed in vitro. A P. falciparum culture (1% parasitaemia, 2% haematocrit) was incubated in a 96-well microplate with decreasing concentrations of the recombinant GX sPLA2 in the presence of a fixed, sub-inhibitory concentration of PAF. The response modification index (RMI) as a function of PAF concentration is represented. RMI is the ratio of the 50% inhibitory concentrations (IC50) for GX sPLA2 plus the concentration of PAF, and GX sPLA2 alone. An RMI of 1.0 represents no change in the IC50 for GX sPLA2 when combined with PAF. The RMI values<1.0 represent the degree of potentiation or synergism.
Quantitative analysis of the increased activity of recombinant hGX sPLA2 when combined with PAF was done by comparing concentration-response curves for hGX sPLA2 alone and in the presence of several fixed, sub-inhibitory concentrations of PAF. Effects of each fixed concentration of PAF on the response of the parasites (IC50) to hGX sPLA2 were expressed as the response modification index (RMI) (Oduola et al., 1998). The RMI was calculated by the following formula: RMI=IC50(A,B)/IC50(A), where drug A is hGX sPLA2 and B is PAF. An RMI of 1.0 represents no change in the IC50 for the recombinant hGX sPLA2 combined with PAF. […]

[2] = system: P. falciparum FcB1/Colombian strain; assay: Anti-Plasmodium activity assay (dose-response, 3H-hypoxanthine incorporation), culture with human serum; settings: read-out: IC50 on Plasmodium intra-erythrocytic development
Experimental: The chloroquine-resistant P. falciparum FcB1/Colombian strain was used. Under the following culture conditions, the in vitro life cycle of the FcB1 strain was 48 hours. Cultures were grown in complete medium consisting of RPMI 1640 (Life Technologies, Inc.) supplemented with 11 mM glucose, 27.5 mM NaHCO3, 100 UI/mL penicillin, 100 μg/mL streptomycin, adjusted to pH 7.4 before addition of heat-inactivated human serum (A+ blood group, 8% final) or Albumax II® (0.5% final), according to the procedure of Trager and Jensen (1976). Parasites were routinely grown at 37° C. in human A+ RBCs (Red blood cells) at a 2% haematocrit and 2-6% parasitemia, in a 3% CO2, 6% O2 and 91% N2 atmosphere. Semi-synchronized cultures were established by Sorbitol (Lambros) treatment. Highly synchronized cultures (4 hour-window synchronization) were obtained by successive Plamion (Pasvol) and Sorbitol treatments. Parasitaemia and stage distribution were determined by optical examination of Diff-Quick stained culture smears. Parasitaemia (expressed in percent) is hundred times the number of parasitized erythrocytes divided by the total number of erythrocytes.
Dried preparations of the purified recombinant human sPLA2s were re-suspended at high concentration (usually 50 μM) in RPMI 0.05% BSA, and then tested individually for their capacity to inhibit the in vitro intra-erythrocytic development of P. falciparum. Dose-response assays based on ^3H-hypoxanthine incorporation by growing parasites were performed as in Guillaume et al. (2004). Radioactivity was measured with a 1450 Microbeta counter (Wallac, Perkin Elmer). Percentage of growth inhibition was calculated from the parasite-associated radioactivity compared with control without sPLA2. Values for the IC50 were determined from dose-response curves.

Compound	effect on GX sPLA2-induced inhibition of parasite growth (P. falciparum)	response modification index (RMI) = IC50(GX sPLA2 + PAF)/IC50(GX sPLA2) [1]	IC50 ([2]; serum PAF-AH inhibited by Pefabloc) [µM]	IC50 ([2]; standard culture conditions) [µM]
CCc1c(C(=O)C(N)=O)c2c(OCC(=O)O)cc(C)cc2n1Cc1ccccc1 [LY329722, sodium [3-aminooxalyl-1-benzyl-2-ethyl-6-methyl-1H-indol-4-yloxy]-acetic acid]	Inhibition of parasite growth was removed	–	–	–
platelet-activating factor [PAF]	–	< 1	95 ± 2.8	82 ± 1.2
